Measured values: ChEMBL document CHEMBL1148809, “Biological evaluation, structure-activity relationships, and three-dimensional quantitative structure-activity relationship studies of dihydro-beta-agarofuran sesquiterpenes as modulators of P-glycoprotein-dependent multidrug resistance” (J Med Chem, 2007)

Experiments:
P-gp (ABCB1) = P-gp (ABCB1) (Homo sapiens, UniProt P08183); assay: (§1) Inhibition of human Pgp-mediated DNR transport in NIH3T3 cells by microplate assay; format: cell-based, Mus musculus; settings: mouse, NIH3T3 cells expressing human P-gp, probe DNR; read-out: Imax
Chain of P-gp (ABCB1) (P08183 whole entry): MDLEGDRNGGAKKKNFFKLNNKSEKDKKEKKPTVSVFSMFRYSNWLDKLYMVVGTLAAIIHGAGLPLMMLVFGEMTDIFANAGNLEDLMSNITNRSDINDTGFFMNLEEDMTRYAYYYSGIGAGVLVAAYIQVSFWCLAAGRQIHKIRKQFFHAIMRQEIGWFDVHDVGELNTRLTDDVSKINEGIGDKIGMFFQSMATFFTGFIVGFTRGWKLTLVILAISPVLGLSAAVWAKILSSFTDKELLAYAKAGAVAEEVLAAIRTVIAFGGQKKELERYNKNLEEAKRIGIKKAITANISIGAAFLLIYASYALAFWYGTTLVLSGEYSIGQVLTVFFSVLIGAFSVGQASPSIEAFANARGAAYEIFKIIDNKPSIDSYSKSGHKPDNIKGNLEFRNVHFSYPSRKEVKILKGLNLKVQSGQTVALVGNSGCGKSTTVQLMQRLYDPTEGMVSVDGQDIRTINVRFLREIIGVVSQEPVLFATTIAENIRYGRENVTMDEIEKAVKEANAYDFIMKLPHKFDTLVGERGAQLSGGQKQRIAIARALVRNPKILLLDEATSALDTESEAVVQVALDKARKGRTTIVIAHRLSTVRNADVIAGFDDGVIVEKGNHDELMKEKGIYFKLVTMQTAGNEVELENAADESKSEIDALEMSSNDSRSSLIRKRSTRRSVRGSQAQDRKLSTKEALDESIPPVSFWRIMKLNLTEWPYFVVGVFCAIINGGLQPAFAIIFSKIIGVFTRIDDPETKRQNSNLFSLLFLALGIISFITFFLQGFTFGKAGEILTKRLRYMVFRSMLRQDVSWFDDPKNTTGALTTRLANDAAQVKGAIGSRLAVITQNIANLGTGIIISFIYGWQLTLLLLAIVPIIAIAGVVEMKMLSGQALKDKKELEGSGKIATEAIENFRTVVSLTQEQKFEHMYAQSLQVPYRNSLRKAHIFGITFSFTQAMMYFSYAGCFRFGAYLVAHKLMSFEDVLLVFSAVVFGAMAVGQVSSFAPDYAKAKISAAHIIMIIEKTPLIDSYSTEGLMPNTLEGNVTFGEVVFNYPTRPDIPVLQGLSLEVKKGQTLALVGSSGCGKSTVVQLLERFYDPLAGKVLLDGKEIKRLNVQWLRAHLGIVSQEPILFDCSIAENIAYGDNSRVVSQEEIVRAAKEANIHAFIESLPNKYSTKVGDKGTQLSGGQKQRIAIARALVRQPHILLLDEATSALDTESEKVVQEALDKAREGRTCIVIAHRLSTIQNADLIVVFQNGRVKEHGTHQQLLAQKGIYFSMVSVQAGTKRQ

[1] = target: ATP-dependent translocase ABCB1 (Homo sapiens, UniProt P08183); assay: as §1; format: cell-based, Mus musculus; settings: read-out: Ki
Chain of ATP-dependent translocase ABCB1 (P08183 whole entry): as above

[2] = Partition coefficient, log P of the compound; format: physicochemical; settings: octanol/water

Row | Structure (SMILES) | Emax (P-gp (ABCB1)) [%] | Ki [1] [µM] | logP ([2]; read-out: LogP) | logP [2]
1 | C[C@@H]1[C@@H](O)[C@@H](O)[C@H](OC(=O)c2ccccc2)[C@@]2(C)[C@@H](OC(=O)/C=C/c3ccccc3)C[C@@H]3C[C@]12OC3(C)C | 76.6 | 6.94 | 6 | 
2 | CC(=O)O[C@H]1[C@@H](OC(=O)c2ccccc2)C[C@@](C)(O)[C@]23OC(C)(C)[C@H](C[C@H](OC(=O)c4ccco4)[C@]12C)[C@H]3OC(=O)C(F)(F)F | 53.3 | 1.56 | 6.4 | 
3 | CC(=O)O[C@H]1C[C@@](C)(O)[C@]23OC(C)(C)[C@H]([C@H](OC(=O)c4ccccc4)[C@H](OC(=O)c4ccccc4)[C@]2(CO)[C@H]1OC(C)=O)[C@H]3OC(C)=O | 73 | 7.04 | 6.9 | 
4 | CC(=O)OC[C@]12[C@H](OC(=O)c3ccccc3)C(=O)[C@@H]3[C@@H](OC(C)=O)[C@]1(OC3(C)C)[C@H](C)C[C@H](OC(C)=O)[C@@H]2OC(C)=O | 62.3 | 2.54 | 6.1 | 
5 | CC(=O)O[C@H]1[C@H](OC(=O)c2cccnc2)[C@@]2(C)[C@@H](OC(=O)c3ccccc3)[C@@H](OC(=O)c3ccccc3)[C@@H]3C[C@]2(OC3(C)C)[C@](C)(O)[C@H]1OC(C)=O | 100 | 1.45 | 7.5 | 
6 | CCCCCO[C@H]1[C@@H](OC(=O)c2ccco2)C[C@@](C)(O)[C@]23OC(C)(C)[C@H](C[C@H](OC(=O)c4ccco4)[C@]12COC(C)=O)[C@H]3OC(C)=O | 91.3 | 1.94 | 6.9 | 
7 | CC(=O)OC[C@]12[C@H](OC(C)=O)C(=O)[C@@H]3[C@@H](O)[C@]1(OC3(C)C)[C@](C)(O)C[C@H](OC(C)=O)[C@@H]2OC(C)=O | 39 | 7.65 | 3.3 | 
8 | CC(=O)OC[C@]12[C@@H](OC(=O)c3ccccc3)[C@@H](OC(=O)c3ccccc3)[C@@H]3[C@@H](OC(C)=O)[C@]1(OC3(C)C)[C@](C)(O)C[C@H](OC(C)=O)[C@@H]2OC(C)=O | 97 | 1.74 | 7.6 | 
9 | CC(=O)O[C@@H]1[C@H]2[C@H](O)[C@H](OC(=O)c3ccccc3)[C@]3(C)[C@@H](OC(=O)c4ccccc4)[C@@H](OC(=O)c4ccccc4)C[C@@](C)(O)[C@@]13OC2(C)C | 100 | 1.21 | 8.4 | 
10 | CC(=O)O[C@H]1[C@@H]2[C@@H](OC(C)=O)[C@]3(OC2(C)C)[C@H](C)C[C@H](OC(=O)c2cccnc2)[C@H](OC(=O)c2ccccc2)[C@@]3(C)[C@H]1OC(=O)c1ccccc1 | 92.3 | 7.72 | 8.7 | 
11 | CC(=O)OC[C@]12[C@H](OC(=O)c3ccccc3)C(=O)[C@@H]3[C@@H](O)[C@]1(OC3(C)C)[C@](C)(O)C[C@H](OC(C)=O)[C@@H]2OC(=O)c1ccccc1 | 74.4 | 3.97 | 7.2 | 
12 | CC(=O)OC[C@]12[C@@H](OC(=O)c3ccccc3)C[C@@H]3[C@@H](OC(C)=O)[C@]1(OC3(C)C)[C@H](C)C[C@H](OC(=O)c1ccccc1)[C@@H]2OC(C)=O | 88 | 0.63 | 7.7 | 

The remaining compounds from weak to strong by Ki [1], led by results:

Row | Emax (P-gp (ABCB1)) [%] | Ki [1] [µM] | logP ([2]; read-out: LogP) | logP [2] | Structure (SMILES)
13 | 100 | 100 | 4.3 |  | CC(=O)O[C@H]1C[C@@](C)(O)[C@]23OC(C)(C)[C@H](C[C@H](OC(=O)c4ccco4)[C@]2(C)[C@H]1O)[C@H]3OC(=O)c1ccco1
14 | 91.7 | 18.4 | 5 |  | CC(=O)OC[C@]12[C@H](OC(=O)c3ccccc3)C(=O)[C@@H]3[C@@H](OC(C)=O)[C@]1(OC3(C)C)[C@H](C)C[C@H](OC(C)=O)[C@@H]2O
15 | 100 | 17.5 | 3.4 |  | CC(=O)O[C@H]1C[C@@](C)(O)[C@]23OC(C)(C)[C@H](C[C@H](OC(=O)c4ccco4)[C@]2(C)[C@H]1OC(C)=O)[C@H]3O
16 | 80.7 | 11.3 |  | 9.4 | CC(=O)O[C@H]1[C@@H]2[C@@H](OC(C)=O)[C@@]3(OC2(C)C)[C@](C)([C@H]1OC(=O)c1ccccc1)[C@@H](OC(=O)c1ccccc1)[C@@H](OC(=O)c1ccccc1)C[C@@]3(C)O
17 | 82.9 | 8.46 | 6.3 |  | CC(=O)O[C@@H]1[C@H](O)[C@@H](C)[C@@]23C[C@@H](C[C@H](OC(=O)/C=C/c4ccccc4)[C@]2(C)[C@H]1OC(=O)c1ccccc1)C(C)(C)O3
18 | 89.8 | 7.59 | 6.6 |  | CC(=O)O[C@@H]1C[C@@](C)(O)[C@@]23C[C@@H](C[C@H](OC(=O)c4ccccc4)[C@]2(C)[C@H]1OC(=O)c1ccccc1)C(C)(C)O3
19 | 29.2 | 5.16 |  | 11.4 | CCCCCCCCCCCC(=O)O[C@@H]1[C@H]2C[C@H](OC(=O)c3ccco3)[C@]3(C)[C@@H](OC(C)=O)[C@@H](OC(=O)c4ccccc4)C[C@@](C)(O)[C@@]13OC2(C)C
20 | 61.7 | 4.13 | 5.1 |  | CC(=O)O[C@@H]1[C@H]2C[C@H](OC(=O)c3ccco3)[C@]3(C)[C@@H](OC(C)=O)[C@@H](OC(=O)c4ccco4)C[C@@](C)(O)[C@@]13OC2(C)C
21 | 95.7 | 2.91 | 5.1 |  | CC(=O)O[C@H]1C[C@@](C)(O)[C@]23OC(C)(C)[C@H](C[C@H](OC(=O)c4ccco4)[C@]2(C)[C@H]1OC(C)=O)[C@H]3OC(=O)c1ccco1
22 | 95.2 | 2.07 | 7.6 |  | CC(=O)O[C@H]1[C@H](OC(=O)/C=C/c2ccccc2)[C@@]2(C)[C@@H](OC(=O)c3ccccc3)C[C@@H]3C[C@]2(OC3(C)C)[C@](C)(O)[C@H]1OC(=O)c1cccnc1
23 | 87.7 | 1.83 | 7 |  | CCCCCO[C@@H]1[C@@H]2[C@@H](OC(C)=O)[C@@]3(OC2(C)C)[C@@](COC(C)=O)([C@@H](OC(C)=O)CC[C@@]3(C)O)[C@@H]1OC(=O)c1ccccc1
24 | 91.1 | 1.65 | 7.3 |  | CC(=O)O[C@H]1C[C@@](C)(O)[C@]23OC(C)(C)[C@H](C[C@H](OC(=O)c4ccco4)[C@]2(C)[C@H]1OC(C)=O)[C@H]3OC(=O)c1cccc2ccccc12
25 | 100 | 1.5 | 7.3 |  | CC(=O)OC[C@]12[C@@H](OC(=O)c3ccccc3)C[C@@H]3[C@@H](OC(=O)c4ccccc4)[C@]1(OC3(C)C)[C@](C)(O)C[C@H](OC(C)=O)[C@@H]2OC(C)=O
26 | 100 | 0.58 | 8.2 |  | CC(=O)OC[C@]12[C@@H](OC(=O)c3ccccc3)C[C@@H]3[C@@H](OC(=O)c4ccccc4)[C@]1(OC3(C)C)[C@](C)(O)C[C@H](OC(=O)c1cccnc1)[C@@H]2OC(C)=O
